# Positions of bridges follow the written chain, without caps; N, C: chain ends. Non-standard residues stand in square brackets, D forms with d. Residues, ends and D or L forms follow the SMILES beside them. Orn = NCCC[C@H](N)C(=O)O; Mpa = O=C(O)CCS
# Columns and labels:
# [1] = system: Human uterine smooth muscle cells; assay: Intracellular Ca2+ with Fluo-4 and confocal live cell imaging; assay type: cell-based
# Description: Human uterine smooth muscle cells were established in a culture. A method to measuring intracellular Ca^2+ with the calcium indicator dye Fluo-4 and live cell imaging with confocal microscopy was established for the cells.
# [2] = comparison value for heparin, species not stated; cited from earlier work
compound,measurement,setting,value
CCOc1ccc(C[C@H]2NC(=O)CCSSC[C@@H](C(=O)N3CCC[C@H]3C(=O)N[C@@H](CCCN)C(=O)NCC(N)=O)NC(=O)[C@H](CC(N)=O)NC(=O)[C@H]([C@@H](C)O)NC(=O)[C@H]([C@@H](C)CC)NC2=O)cc1 [Atosiban] ([Mpa][dY](Et)ITNCP[Orn]G-NH2; disulfide 1-6),effect on Ca2+ transport by oxytocin and the combination oxytocin/DF01,[1]; 10^−6 M,clearly inhibited
heparin,corresponding (subcutaneous) bioavailability,[2],about 10%
"NCCOB(c1ccccc1)c1ccccc1 [2-APB, 2-Aminoethoxydiphenyl borate]",effect on oxytocin and oxytocin/DF01 stimulated Ca2+-transport,"[1]; 100 μM, 30 min of incubation",decreased strongly
CC[C@H](C)[C@@H]1NC(=O)[C@H](Cc2ccc(O)cc2)NC(=O)[C@@H](N)CSSC[C@@H](C(=O)N2CCC[C@H]2C(=O)N[C@@H](CC(C)C)C(=O)NCC(N)=O)NC(=O)[C@H](CC(N)=O)NC(=O)[C@H](CCC(N)=O)NC1=O [oxytocin],concentration giving maximum effect on Ca2+-influx to the cytosol,[1]; dose-dependent effect,0.05 IU/ml

# — patent US20150045322A1, “COMBINATION TREATMENT COMPRISING SULPHATED GLYCOSAMINOGLYCANS FOR INDUCING LABOR” (DILAFOR AB, priority 2012, published 2015)
